# Test results from the kinase profiling compilation of Christmann-Franck et al. (2016).
# What was measured:
# Assay in all cases: radiometric filter-binding kinase assay
# [1] = biological target: IRAK4 (human) (UniProt Q9NWZ3)
# [2] = biological target: CLK2 (human) (UniProt P49760)
# [3] = biological target: CHEK2 (human) (UniProt O96017)
# [4] = biological target: GSK3B (human) (UniProt P49841)
# [5] = biological target: HIPK2 (human) (UniProt Q9H2X6)
# [6] = biological target: NEK6 (human) (UniProt Q9HC98)
# [7] = biological target: SRC (human) (UniProt P12931)
# [8] = biological target: MARK2 (human) (UniProt Q7KZI7)
# [9] = biological target: RPS6KA5 KD1 KD2 (human) (UniProt O75582)
# [10] = biological target: BRSK2 (human) (UniProt Q8IWQ3)
# [11] = biological target: AURKB (human) (UniProt Q96GD4)
# [12] = biological target: MAP3K1 (human) (UniProt Q13233)
# [13] = biological target: PRKAA1 PRKAB2 PRKAG1 (human) (UniProt O43741+Q13131+P54619)
# [14] = biological target: IGF1R (human) (UniProt P08069)
# [15] = biological target: PIM2 (human) (UniProt Q9P1W9)
# [16] = tested on: SGK1 (human), O00141 [S422D]
# [17] = biological target: MAPK1 (human) (UniProt P28482)
# [18] = tested on: RPS6KB1 (human), P23443 [T412E]
# [19] = biological target: BTK (human) (UniProt Q06187)
# [20] = biological target: MAPK14 (human) (UniProt Q16539)
# [21] = biological target: SRPK1 (human) (UniProt Q96SB4)
# [22] = biological target: MAPKAPK2 (human) (UniProt P49137)
# [23] = biological target: NUAK1 (human) (UniProt O60285)
# [24] = biological target: MINK1 (human) (UniProt Q8N4C8)
# [25] = biological target: RPS6KA1 KD1 KD2 (human) (UniProt Q15418)
# [26] = biological target: PIM1 (human) (UniProt P11309)
# [27] = biological target: PIM3 (human) (UniProt Q86V86)
# [28] = biological target: EPHB3 (human) (UniProt P54753)
# [29] = biological target: FLT1 (human) (UniProt P17948)
# [30] = biological target: MST4 (human) (UniProt Q9P289)
# [31] = biological target: DYRK3 (human) (UniProt O43781)
# [32] = biological target: MAP2K1 (human) (UniProt Q02750)
# [33] = biological target: HIPK3 (human) (UniProt Q9H422)
# [34] = biological target: MAPK3 (human) (UniProt P27361)
# [35] = biological target: HIPK1 (human) (UniProt Q86Z02)
# Sequence of BTK (human) (Q06187 whole entry, looked up): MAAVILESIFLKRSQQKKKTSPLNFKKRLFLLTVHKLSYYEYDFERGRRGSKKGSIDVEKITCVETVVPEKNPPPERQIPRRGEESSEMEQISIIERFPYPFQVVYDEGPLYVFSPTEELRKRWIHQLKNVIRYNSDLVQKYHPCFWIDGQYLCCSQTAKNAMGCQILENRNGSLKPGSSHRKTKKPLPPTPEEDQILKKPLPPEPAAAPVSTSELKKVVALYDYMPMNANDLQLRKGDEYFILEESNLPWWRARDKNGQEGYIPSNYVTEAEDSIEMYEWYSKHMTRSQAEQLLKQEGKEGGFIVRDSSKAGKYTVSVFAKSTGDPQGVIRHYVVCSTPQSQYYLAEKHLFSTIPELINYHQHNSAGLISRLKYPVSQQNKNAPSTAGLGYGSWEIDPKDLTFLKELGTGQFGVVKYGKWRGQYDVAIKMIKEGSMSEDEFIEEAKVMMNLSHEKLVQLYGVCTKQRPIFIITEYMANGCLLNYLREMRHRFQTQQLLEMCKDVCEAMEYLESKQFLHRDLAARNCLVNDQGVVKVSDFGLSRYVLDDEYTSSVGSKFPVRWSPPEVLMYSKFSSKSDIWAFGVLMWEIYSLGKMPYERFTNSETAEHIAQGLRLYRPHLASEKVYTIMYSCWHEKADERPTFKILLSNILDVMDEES
# Sequence of HIPK2 (human) (Q9H2X6 whole entry, looked up): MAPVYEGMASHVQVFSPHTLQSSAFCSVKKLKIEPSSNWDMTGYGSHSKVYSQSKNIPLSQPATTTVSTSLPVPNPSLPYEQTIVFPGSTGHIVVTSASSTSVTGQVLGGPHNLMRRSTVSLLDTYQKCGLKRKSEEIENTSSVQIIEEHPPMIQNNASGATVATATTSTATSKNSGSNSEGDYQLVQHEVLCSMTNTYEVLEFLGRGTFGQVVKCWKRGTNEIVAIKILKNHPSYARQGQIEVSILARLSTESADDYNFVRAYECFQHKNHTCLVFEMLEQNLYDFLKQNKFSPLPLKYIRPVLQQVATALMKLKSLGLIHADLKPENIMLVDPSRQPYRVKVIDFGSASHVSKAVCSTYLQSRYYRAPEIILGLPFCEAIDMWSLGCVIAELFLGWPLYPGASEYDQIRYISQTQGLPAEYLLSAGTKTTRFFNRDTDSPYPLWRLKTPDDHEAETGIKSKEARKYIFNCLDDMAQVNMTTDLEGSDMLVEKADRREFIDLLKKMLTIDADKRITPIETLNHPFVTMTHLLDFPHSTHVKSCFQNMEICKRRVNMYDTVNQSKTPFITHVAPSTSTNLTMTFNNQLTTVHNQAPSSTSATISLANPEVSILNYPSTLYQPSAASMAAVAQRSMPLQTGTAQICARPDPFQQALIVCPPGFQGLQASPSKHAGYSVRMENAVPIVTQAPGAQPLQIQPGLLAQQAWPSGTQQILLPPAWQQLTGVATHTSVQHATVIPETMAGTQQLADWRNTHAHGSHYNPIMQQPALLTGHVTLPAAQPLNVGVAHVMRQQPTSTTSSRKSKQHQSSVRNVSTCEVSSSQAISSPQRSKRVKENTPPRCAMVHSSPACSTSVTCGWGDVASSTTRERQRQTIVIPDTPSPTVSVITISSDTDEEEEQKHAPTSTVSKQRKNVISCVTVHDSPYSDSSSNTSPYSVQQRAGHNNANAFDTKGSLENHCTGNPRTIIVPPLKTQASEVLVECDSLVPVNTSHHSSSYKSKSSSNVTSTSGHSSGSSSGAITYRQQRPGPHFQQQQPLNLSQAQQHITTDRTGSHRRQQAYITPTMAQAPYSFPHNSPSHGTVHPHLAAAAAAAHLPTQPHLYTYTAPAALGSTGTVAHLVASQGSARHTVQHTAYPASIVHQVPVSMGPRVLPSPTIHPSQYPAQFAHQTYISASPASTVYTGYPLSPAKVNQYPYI
# Sequence of MST4 (human) (Q9P289 whole entry, looked up): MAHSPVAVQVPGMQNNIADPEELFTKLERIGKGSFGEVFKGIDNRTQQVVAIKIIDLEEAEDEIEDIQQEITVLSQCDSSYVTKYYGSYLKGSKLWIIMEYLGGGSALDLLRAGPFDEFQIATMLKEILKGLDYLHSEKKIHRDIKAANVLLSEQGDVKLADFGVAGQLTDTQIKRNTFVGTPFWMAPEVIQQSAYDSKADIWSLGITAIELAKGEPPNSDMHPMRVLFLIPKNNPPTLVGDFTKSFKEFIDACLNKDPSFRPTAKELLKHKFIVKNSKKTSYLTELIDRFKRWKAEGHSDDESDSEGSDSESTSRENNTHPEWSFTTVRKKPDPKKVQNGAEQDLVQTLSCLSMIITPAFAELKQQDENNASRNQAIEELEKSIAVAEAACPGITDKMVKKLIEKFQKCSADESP
# Sequence of FLT1 (human) (P17948 whole entry, looked up): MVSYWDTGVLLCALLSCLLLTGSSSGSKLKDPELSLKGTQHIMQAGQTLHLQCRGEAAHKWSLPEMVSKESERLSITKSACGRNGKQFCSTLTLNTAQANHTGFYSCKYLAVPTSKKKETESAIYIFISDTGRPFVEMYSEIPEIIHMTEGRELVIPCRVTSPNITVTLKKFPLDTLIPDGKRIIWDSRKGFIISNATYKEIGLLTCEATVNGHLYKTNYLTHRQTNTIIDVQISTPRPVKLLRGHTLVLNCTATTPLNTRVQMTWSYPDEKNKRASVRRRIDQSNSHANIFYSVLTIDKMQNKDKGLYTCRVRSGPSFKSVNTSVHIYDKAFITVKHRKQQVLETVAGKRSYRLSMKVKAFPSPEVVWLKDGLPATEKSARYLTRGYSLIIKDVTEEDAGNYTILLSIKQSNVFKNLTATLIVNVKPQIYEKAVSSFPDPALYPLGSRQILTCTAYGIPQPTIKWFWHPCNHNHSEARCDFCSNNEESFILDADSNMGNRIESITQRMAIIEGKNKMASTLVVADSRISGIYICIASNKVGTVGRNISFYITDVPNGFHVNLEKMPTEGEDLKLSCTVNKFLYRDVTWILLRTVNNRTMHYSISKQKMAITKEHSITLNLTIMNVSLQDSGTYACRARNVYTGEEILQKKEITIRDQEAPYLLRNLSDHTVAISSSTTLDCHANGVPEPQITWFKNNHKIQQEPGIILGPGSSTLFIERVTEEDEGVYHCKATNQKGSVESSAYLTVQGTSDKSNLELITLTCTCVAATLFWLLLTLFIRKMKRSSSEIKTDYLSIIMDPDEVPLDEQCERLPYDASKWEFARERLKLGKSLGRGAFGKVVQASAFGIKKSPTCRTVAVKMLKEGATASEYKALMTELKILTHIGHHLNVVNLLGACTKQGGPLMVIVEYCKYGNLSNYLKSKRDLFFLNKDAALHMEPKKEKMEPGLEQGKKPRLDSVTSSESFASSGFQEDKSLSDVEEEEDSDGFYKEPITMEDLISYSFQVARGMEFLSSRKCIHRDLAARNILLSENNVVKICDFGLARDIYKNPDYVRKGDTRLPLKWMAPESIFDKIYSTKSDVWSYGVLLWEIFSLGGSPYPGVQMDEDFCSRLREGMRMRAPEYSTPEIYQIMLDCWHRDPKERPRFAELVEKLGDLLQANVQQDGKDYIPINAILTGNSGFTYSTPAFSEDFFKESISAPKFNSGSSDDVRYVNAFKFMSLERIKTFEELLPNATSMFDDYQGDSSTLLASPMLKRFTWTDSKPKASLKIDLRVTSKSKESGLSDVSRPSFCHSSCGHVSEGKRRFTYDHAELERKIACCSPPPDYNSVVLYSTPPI
# Sequence of MAPK14 (human) (Q16539 whole entry, looked up): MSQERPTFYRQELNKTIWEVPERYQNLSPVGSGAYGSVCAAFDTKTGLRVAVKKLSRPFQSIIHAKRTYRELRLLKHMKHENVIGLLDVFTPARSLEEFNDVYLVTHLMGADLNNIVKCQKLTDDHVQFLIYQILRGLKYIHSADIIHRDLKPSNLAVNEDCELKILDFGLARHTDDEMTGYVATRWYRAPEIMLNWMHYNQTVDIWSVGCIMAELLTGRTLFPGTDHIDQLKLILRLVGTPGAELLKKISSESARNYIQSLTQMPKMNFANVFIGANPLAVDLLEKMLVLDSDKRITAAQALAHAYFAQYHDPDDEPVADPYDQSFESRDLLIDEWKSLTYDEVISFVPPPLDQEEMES
# Sequence of GSK3B (human) (P49841 whole entry, looked up): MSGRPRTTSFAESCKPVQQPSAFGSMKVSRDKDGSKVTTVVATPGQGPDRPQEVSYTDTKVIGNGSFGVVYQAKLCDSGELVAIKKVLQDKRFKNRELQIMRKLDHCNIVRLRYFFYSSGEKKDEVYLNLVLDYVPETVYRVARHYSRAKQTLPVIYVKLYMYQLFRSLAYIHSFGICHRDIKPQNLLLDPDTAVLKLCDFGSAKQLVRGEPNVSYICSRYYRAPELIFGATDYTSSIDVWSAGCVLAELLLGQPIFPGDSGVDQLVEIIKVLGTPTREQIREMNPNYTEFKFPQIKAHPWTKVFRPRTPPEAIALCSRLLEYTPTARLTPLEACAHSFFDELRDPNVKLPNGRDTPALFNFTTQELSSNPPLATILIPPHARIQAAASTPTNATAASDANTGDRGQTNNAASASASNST
# Sequence of PIM1 (human) (P11309 whole entry, looked up): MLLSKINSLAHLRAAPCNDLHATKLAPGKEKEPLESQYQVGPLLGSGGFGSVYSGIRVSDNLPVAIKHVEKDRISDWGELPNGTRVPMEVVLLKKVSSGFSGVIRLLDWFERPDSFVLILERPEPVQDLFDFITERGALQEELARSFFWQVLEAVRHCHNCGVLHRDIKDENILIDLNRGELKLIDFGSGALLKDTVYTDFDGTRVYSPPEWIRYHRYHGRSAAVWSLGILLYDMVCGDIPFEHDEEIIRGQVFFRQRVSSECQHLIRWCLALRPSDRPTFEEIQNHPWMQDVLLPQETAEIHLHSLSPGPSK
# Sequence of NEK6 (human) (Q9HC98 whole entry, looked up): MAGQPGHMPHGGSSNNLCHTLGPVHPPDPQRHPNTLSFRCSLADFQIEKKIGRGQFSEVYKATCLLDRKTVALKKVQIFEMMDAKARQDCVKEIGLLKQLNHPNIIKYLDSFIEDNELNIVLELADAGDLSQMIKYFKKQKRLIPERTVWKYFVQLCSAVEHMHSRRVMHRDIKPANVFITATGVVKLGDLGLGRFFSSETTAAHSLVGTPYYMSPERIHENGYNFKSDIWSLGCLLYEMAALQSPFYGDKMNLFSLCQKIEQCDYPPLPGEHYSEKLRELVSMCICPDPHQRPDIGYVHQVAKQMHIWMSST
structure (smiles),measurement,setting,value
O=C1c2ccccc2-c2n[nH]c3cccc1c23,residual activity,[1]; compound 1.0 µM,33%
same,residual activity,[1]; compound 10.0 µM,8%
same,residual activity,[2]; compound 1.0 µM,16%
same,residual activity,[2]; compound 10.0 µM,3%
same,residual activity,[3]; compound 1.0 µM,21%
same,residual activity,[3]; compound 10.0 µM,5%
same,residual activity,[4]; compound 1.0 µM,87%
same,residual activity,[4]; compound 10.0 µM,51%
same,residual activity,[5]; compound 1.0 µM,31%
same,residual activity,[5]; compound 10.0 µM,11%
same,residual activity,[6]; compound 1.0 µM,95%
same,residual activity,[6]; compound 10.0 µM,66%
same,residual activity,[7]; compound 1.0 µM,81%
same,residual activity,[7]; compound 10.0 µM,41%
same,residual activity,[8]; compound 1.0 µM,62%
same,residual activity,[8]; compound 10.0 µM,43%
same,residual activity,[9]; compound 1.0 µM,75%
same,residual activity,[9]; compound 10.0 µM,49%
same,residual activity,[10]; compound 1.0 µM,46%
same,residual activity,[10]; compound 10.0 µM,32%
same,residual activity,[11]; compound 1.0 µM,15%
same,residual activity,[11]; compound 10.0 µM,13%
same,residual activity,[12]; compound 1.0 µM,73%
same,residual activity,[12]; compound 10.0 µM,28%
same,residual activity,[13]; compound 1.0 µM,70%
same,residual activity,[13]; compound 10.0 µM,31%
same,residual activity,[14]; compound 1.0 µM,55%
same,residual activity,[14]; compound 10.0 µM,11%
same,residual activity,[15]; compound 1.0 µM,78%
same,residual activity,[15]; compound 10.0 µM,29%
same,residual activity,[16]; compound 1.0 µM,72%
same,residual activity,[16]; compound 10.0 µM,30%
same,residual activity,[17]; compound 1.0 µM,83%
same,residual activity,[17]; compound 10.0 µM,62%
same,residual activity,[18]; compound 1.0 µM,75%
same,residual activity,[18]; compound 10.0 µM,30%
same,residual activity,[19]; compound 1.0 µM,95%
same,residual activity,[19]; compound 10.0 µM,62%
same,residual activity,[20]; compound 1.0 µM,94%
same,residual activity,[20]; compound 10.0 µM,86%
same,residual activity,[21]; compound 1.0 µM,91%
same,residual activity,[21]; compound 10.0 µM,77%
same,residual activity,[22]; compound 1.0 µM,95%
same,residual activity,[22]; compound 10.0 µM,77%
same,residual activity,[23]; compound 1.0 µM,38%
same,residual activity,[23]; compound 10.0 µM,21%
same,residual activity,[24]; compound 1.0 µM,37%
same,residual activity,[24]; compound 10.0 µM,16%
same,residual activity,[25]; compound 1.0 µM,66%
same,residual activity,[25]; compound 10.0 µM,26%
same,residual activity,[26]; compound 1.0 µM,43%
same,residual activity,[26]; compound 10.0 µM,15%
same,residual activity,[27]; compound 1.0 µM,33%
same,residual activity,[27]; compound 10.0 µM,11%
same,residual activity,[28]; compound 1.0 µM,102%
same,residual activity,[28]; compound 10.0 µM,49%
same,residual activity,[29]; compound 1.0 µM,29%
same,residual activity,[29]; compound 10.0 µM,14%
same,residual activity,[30]; compound 1.0 µM,58%
same,residual activity,[30]; compound 10.0 µM,17%
same,residual activity,[31]; compound 1.0 µM,45%
same,residual activity,[31]; compound 10.0 µM,10%
same,residual activity,[32]; compound 1.0 µM,67%
same,residual activity,[32]; compound 10.0 µM,26%
same,residual activity,[33]; compound 1.0 µM,90%
same,residual activity,[33]; compound 10.0 µM,33%
same,residual activity,[34]; compound 1.0 µM,94%
same,residual activity,[34]; compound 10.0 µM,45%
same,residual activity,[35]; compound 1.0 µM,81%
same,residual activity,[35]; compound 10.0 µM,27%
